From ChEMBL document CHEMBL1136793, “First dual aromatase-steroid sulfatase inhibitors” (J Med Chem, 2003) come the findings set out here.

Series [1] concerns the target T1, Aromatase (Homo sapiens, UniProt P11511).
T1 sequence (P11511 whole entry): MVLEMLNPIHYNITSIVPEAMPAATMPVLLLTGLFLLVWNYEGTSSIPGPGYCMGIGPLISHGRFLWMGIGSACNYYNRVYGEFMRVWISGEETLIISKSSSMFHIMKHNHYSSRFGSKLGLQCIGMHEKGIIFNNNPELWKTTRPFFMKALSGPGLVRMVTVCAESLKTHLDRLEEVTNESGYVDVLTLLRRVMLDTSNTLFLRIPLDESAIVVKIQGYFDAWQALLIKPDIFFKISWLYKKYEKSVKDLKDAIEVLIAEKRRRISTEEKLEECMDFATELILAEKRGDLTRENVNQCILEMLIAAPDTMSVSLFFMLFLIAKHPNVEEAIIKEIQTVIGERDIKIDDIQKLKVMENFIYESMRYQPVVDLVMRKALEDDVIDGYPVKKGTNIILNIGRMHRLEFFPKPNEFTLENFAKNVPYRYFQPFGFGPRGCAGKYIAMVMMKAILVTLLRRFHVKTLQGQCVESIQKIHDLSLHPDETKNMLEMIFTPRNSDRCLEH
The experiment in a line: Percent reduction in aromatase P450 19A1 binding inhibition after JEG-3 cell pretreatment at 1 uM (from 86.5+/-1.4% to 23+/-1%). It counts as cell-based. The settings on record: jeg-3, 1 µM.

Series [2] addresses T2, Steryl-sulfatase (Homo sapiens) (UniProt P08842).
T2 sequence (whole entry): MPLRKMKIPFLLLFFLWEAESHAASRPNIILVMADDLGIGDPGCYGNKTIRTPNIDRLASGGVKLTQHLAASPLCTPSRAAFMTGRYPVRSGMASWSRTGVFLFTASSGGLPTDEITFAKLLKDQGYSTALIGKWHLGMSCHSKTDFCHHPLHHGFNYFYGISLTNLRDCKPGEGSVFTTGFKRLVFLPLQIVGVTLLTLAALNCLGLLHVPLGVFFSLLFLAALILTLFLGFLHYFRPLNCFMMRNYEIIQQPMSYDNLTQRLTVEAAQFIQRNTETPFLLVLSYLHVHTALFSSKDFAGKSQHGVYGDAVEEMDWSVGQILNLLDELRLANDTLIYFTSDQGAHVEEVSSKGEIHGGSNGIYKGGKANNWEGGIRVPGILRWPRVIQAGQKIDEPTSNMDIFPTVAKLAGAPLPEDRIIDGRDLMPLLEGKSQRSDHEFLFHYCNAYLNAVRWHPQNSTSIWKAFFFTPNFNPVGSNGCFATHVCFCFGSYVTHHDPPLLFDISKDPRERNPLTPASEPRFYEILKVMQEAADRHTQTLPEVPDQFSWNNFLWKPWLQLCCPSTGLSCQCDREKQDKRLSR
The settings on record: JEG-3, 1 uM.

The target of series [3] is T2, Steryl-sulfatase (Homo sapiens). The following applies: 3.3 nM.
Description: In vitro inhibition of [6,7-3H]E1S binding to steroid sulfatase in JEG-3 human placental carcinoma cells at 3.3 nM
Series [4] has the same target. Kind of series: In vitro inhibition of [6,7-3H]E1S binding to steroid sulfatase in JEG-3 human placental carcinoma cells; Not active.
Series [5] addresses T1, Aromatase.
Description: In vitro inhibition of [1-beta-3H]-androstenedione binding to Cytochrome P450 19A1 of JEG-3 human placental carcinoma cells

Activity calls are given as the source filed them. No cut-off for these calls is given here.

As to `N#Cc1ccc(N(Cc2ccc(OS(N)(=O)=O)cc2)n2cnnc2)cc1`, the Reduction in series [1] amounted to 63.5%. Further, the NS entry in series [2] is “inactive”. `NS(=O)(=O)Oc1ccc2c3c(c(=O)oc2c1)CCCCC3` came in with an inhibition in series [3] of 50%. In the case of `N#Cc1ccc(N(Cc2ccc(Br)cc2)n2cnnc2)cc1`, the NA entry in series [4] was “inactive”. The IC50 in series [5] stood at 0.5 nM.

One may read the inhibition as the percentage by which the read-out fell short of the control. As usually defined, the IC50 is the concentration that gives 50% inhibition.
